Assay [1] deals with T1, FLT3 R834Q (Homo sapiens, UniProt P36888, R834Q).
T1 construct: purchased DiscoverX (KINOMEscan); host or cells: E. coli BL21-derived host (T7 phage) or HEK-293
T1 sequence (P36888 27-993 R834Q): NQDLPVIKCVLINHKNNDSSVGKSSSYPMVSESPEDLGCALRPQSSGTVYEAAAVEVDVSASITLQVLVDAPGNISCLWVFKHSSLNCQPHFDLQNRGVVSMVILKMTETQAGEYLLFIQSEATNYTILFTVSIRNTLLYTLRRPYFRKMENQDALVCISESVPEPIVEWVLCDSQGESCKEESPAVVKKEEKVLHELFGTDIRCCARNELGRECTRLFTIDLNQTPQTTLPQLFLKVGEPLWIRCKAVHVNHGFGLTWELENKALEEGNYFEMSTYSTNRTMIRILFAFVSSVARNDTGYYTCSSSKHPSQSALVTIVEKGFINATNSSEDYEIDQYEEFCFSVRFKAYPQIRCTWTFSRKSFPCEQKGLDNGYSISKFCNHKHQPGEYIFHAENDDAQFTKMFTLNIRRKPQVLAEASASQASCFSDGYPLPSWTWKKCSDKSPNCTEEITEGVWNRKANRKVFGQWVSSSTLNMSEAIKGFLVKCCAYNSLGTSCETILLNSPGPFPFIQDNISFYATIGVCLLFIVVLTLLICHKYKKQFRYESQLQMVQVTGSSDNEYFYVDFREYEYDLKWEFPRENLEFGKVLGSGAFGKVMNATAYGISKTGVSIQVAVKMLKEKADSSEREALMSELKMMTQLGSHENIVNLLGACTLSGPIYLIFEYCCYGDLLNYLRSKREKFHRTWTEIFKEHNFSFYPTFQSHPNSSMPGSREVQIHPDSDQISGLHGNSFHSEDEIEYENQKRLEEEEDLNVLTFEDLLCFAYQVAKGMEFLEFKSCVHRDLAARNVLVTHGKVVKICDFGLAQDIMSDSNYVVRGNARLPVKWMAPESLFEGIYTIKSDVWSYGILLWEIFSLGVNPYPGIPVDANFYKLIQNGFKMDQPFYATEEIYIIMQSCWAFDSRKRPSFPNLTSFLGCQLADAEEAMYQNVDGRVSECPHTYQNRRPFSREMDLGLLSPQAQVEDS
Kind of assay: DiscoverX KINOMEscan competition binding assay, FLT3 R834Q. The following applies: 11-point 3-fold dilution. From the text: (§1) […]. […] As a result, the data report thermodynamic interaction affinities (Kd values), rather than IC50 values that are dependent on ATP concentrations. The assay uses a DNA-tagged version of the protein kinase, and an immobilized ligand bound to a solid support. Compounds that directly or indirectly prevent kinase binding to the immobilized ligand reduce the amount of kinase captured on the solid support, which is detected using an ultra-sensitive qPCR method. Affinity constants reported from the assay have been reported to be independent of the immobilized ligand used that is coupled to the solid support (See supplemental information in Fabian, M. A. et. al., (2005) Nat. Biotechnol. 23, 329-336; Wodicka, L. M. et. al., (2010) Chem. Biol. 17, 1241-1249.)
(§2) Kinase-tagged T7 phage strains were prepared in an E. coli host derived from the BL21 strain. E. coli were grown to log-phase and infected with T7 phage and incubated with shaking at 32° C. until lysis. The lysates were centrifuged and filtered to remove cell debris. The remaining kinases were produced in HEK-293 cells and subsequently tagged with DNA for qPCR detection. Streptavidin-coated magnetic beads were treated with biotinylated small molecule ligands for 30 minutes at room temperature to generate affinity resins for kinase assays. The liganded beads were blocked with excess biotin and washed with blocking buffer (SeaBlock (Pierce), 1% BSA, 0.05% Tween 20, 1 mM DTT) to remove unbound ligand and to reduce non-specific binding. […] Test compounds were prepared as 111× stocks in 100% DMSO. Kds were determined using an 11-point 3-fold compound dilution series with three DMSO control points. All compounds for Kd measurements are distributed by acoustic transfer (non-contact dispensing) in 100% DMSO. The compounds were then diluted directly into the assays such that the final concentration of DMSO was 0.9%. All reactions were performed in polypropylene 384-well plates. Each was a final volume of 0.02 mL. […] The kinase concentration in the eluates was measured by qPCR.
(§3) Binding constants (Kds) were calculated with a standard dose-response curve using the Hill equation. The Hill Slope was set to −1. Curves were fitted using a non-linear least square fit with the Levenberg-Marquardt algorithm.

For assay [2], the target named is T2, FLT3 K663Q (Homo sapiens, UniProt P36888, K663Q).
T2 construct: purchased DiscoverX (KINOMEscan); host or cells: E. coli BL21-derived host (T7 phage) or HEK-293
T2 sequence (P36888 27-993 K663Q): T1 sequence (P36888 27-993 R834Q) with K637Q, Q808R
Briefly: DiscoverX KINOMEscan competition binding assay, FLT3 K663Q. Conditions: 11-point 3-fold dilution.
Text: as §1, §2, §3

Changes are numbered by the printed parent chain.

We go through seven compounds from patent publication US20260226048A1, “MULTI-CYCLIC IRAK AND FLT3 INHIBITING COMPOUNDS AND USES THEREOF” (CHILDREN'S HOSPITAL MEDICAL CENTER, priority 2023, published 2026).

For orientation: Kd means the concentration at which binding is half-saturated. `COc1cc2ncc(-c3nc(N[C@H]4CNCC[C@@H]4F)ncc3F)n2nc1C1CC1` [Compound 1a, 4-(6-cyclopropyl-7-methoxyimidazo[1,2-b]pyridazin-3-yl)-5-fluoro-N-((3S,4S)-4-fluoropiperidin-3-yl)pyrimidin-2-amine]: the dissociation constant Kd in assay [1] is less than 0.17 nM; in assay [2] it was 0.27 nM.
Turning to `FC(F)COc1cc2ncc(-c3ccnc(N[C@H]4CNCC[C@@H]4F)n3)n2nc1C1CC1` [Compound 4a, 4-(6-cyclopropyl-7-(2,2-difluoroethoxy)imidazo[1,2-b]pyridazin-3-yl)-N-((3 S,4S)-4-fluoropiperidin-3-yl)pyrimidin-2-amine], the Kd in assay [1] is 0.69 nM; in assay [2], 2.3 nM.
On the same counts, the results for `COc1cc2ncc(-c3nc(N[C@H]4CNCC[C@@H]4F)ncc3F)n2nc1C(C)(C)O` [Compound 45a, 2-(3-(5-fluoro-2-(((3S,4S)-4-fluoropiperidin-3-yl)amino)pyrimidin-4-yl)-7-methoxyimidazo[1,2-b]pyridazin-6-yl)propan-2-ol] are 5.9 nM and 3.5 nM.
As to `CC(C)(O)c1ccc2ncc(-c3nc(N[C@H]4CNCC[C@@H]4F)ncc3F)n2c1` [Compound 46a, 2-(3-(5-fluoro-2-(((3S,4S)-4-fluoropiperidin-3-yl)amino)pyrimidin-4-yl)imidazo[1,2-a]pyridin-6-yl)propan-2-ol], the equilibrium dissociation constant (Kd) turned out to be 4.4 nM in assay [1] and 3.7 nM in assay [2].
Consider `COc1cc2ncc(-c3nc(N[C@H]4CNCC[C@@H]4F)ncc3F)n2nc1C1COC1` [Compound 92a, 5-fluoro-N-((3S,4S)-4-fluoropiperidin-3-yl)-4-(7-methoxy-6-(oxetan-3-yl)imidazo[1,2-b]pyridazin-3-yl)pyrimidin-2-amine], for which the Kd in assay [1] was 0.77 nM; in assay [2], 0.49 nM.
In the case of `CC(C)(O)c1cn2c(-c3nc(N[C@H]4CNCC[C@@H]4F)ncc3F)cnc2cn1` [Compound 100a, 2-(3-(5-fluoro-2-(((3S,4S)-4-fluoropiperidin-3-yl)amino)pyrimidin-4-yl)imidazo[1,2-a]pyrazin-6-yl)propan-2-ol], the Kd in assay [1] is 40 nM; in assay [2] it was 30 nM.
Regarding `COc1cc2ncc(-c3nc(N[C@H]4CNCC[C@@H]4F)ncc3F)n2nc1N1CCCS1(=O)=O` [Compound 112a, 2-(3-(5-fluoro-2-(((3S,4S)-4-fluoropiperidin-3-yl)amino)pyrimidin-4-yl)-7-methoxyimidazo[1,2-b]pyridazin-6-yl)isothiazolidine 1,1-dioxide], the Kd in assay [1] was 0.28 nM; in assay [2], 0.31 nM.
